Measured values taken from US9920030B2 (priority 2006, dated 2018).
Where two headings read alike, the source gives them in different places.

Assays:
Format in all cases: in vivo
[1] = system: Phytophthora infestans (the causal agent of tomato late blight); experiment: whole plant or invertebrate; conditions: for pest or weed control at 40 ppm: Phytophthora infestans, 144 h, read-out: Percent Disease Control, Test B
[2] = system: Plasmopara vilicola (the causal agent of grape downy mildew); experiment: Test A: grape downy mildew, test suspension sprayed on grape seedlings after inoculation, visual disease rating; conditions: for pest or weed control at 40 ppm: Plasmopara, 144 h, read-out: Percent Disease Control, Test A
Procedure, shortened: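 Curative spray: spores applied first, plants kept 24 h in saturated air at 20 °C and dried before treatment, then 5 days at 20 °C plus 24 h saturated. Suspension: acetone (3% of volume) in 1:1 acetone/water, 250 ppm Trem 014, sprayed to run-off (200 ppm ≈ 500 g/ha); visual 0–100 control rating.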

[3] = system: Phytophthora infestans (the causal agent of tomato late blight); experiment: whole plant or invertebrate; conditions: for pest or weed control at 40 ppm: Phytophthora infestans, 96 h, read-out: Percent Disease Control, Test C
[4] = compounds without asterisk (application rate not given), 100 = 100% disease control, 0 = no control relative to the controls

| Structure (SMILES) | Percent Disease Control, Test B ([1]; * tested at 40 ppm) | Percent Disease Control, Test A ([2]; * tested at 40 ppm) | Percent Disease Control, Test C ([3]; * tested at 40 ppm) | also measured |
| --- | --- | --- | --- | --- |
| Cc1cc(C(F)(F)F)nn1CC(=O)N1CCC(c2nc(C3=NOC(c4ccc(F)cc4)C3)cs2)CC1 (stereo not drawn) [Compound 96] | 100% | 100% | 99% |  |
| Cc1cc(C(F)(F)F)nn1CC(=O)N1CCC(c2nc(C3=NOC(c4ccc(C(F)(F)F)cc4)C3)cs2)CC1 (stereo not drawn) [Compound 97] | 100% | 99% | 95% |  |
| Cc1cc(C(F)(F)F)nn1CC(=O)N1CCC(c2nc(C3=NOC(c4ccccn4)C3)cs2)CC1 (stereo not drawn) [Compound 98, 1-[4-[4-(4,5-dihydro-5-(2-pyridinyl)-3-isoxazolyl)-2-thiazolyl]-1-piperidinyl]-2-[5-methyl-3-(trifluoromethyl)-1H-pyrazol-1-yl]ethanone] |  |  |  | pest or weed control at 40 ppm [1]: 100%; pest or weed control at 40 ppm ([2]; * tested at 40 ppm): 77%; pest or weed control at 40 ppm [3]: 99% |
| Cc1cc(C(F)(F)F)nn1CC(=O)N1CCC(c2nc(C3=NC4CCCCC4N3)cs2)CC1 (stereo not drawn) [Compound 99] |  |  |  | Percent Disease Control, Test B [1, 4]: 33%; Percent Disease Control, Test A [2, 4]: 31%; Percent Disease Control, Test C [3, 4]: 0% |
| Cc1cc(C(F)(F)F)nn1CC(=O)N1CCC(c2nc(C3=NOC(c4ccccc4)(C(C)C)C3)cs2)CC1 (stereo not drawn) [Compound 100] | 100% | 100% | 99% |  |
| CCCC1(c2ccccc2)CC(c2csc(C3CCN(C(=O)Cn4nc(C(F)(F)F)cc4C)CC3)n2)=NO1 (stereo not drawn) [Compound 101] | 100% | 100% | 99% |  |
| Cc1cc(C(F)(F)F)nn1CC(=O)N1CCC(c2nc(C3=NOC4(CCSc5ccccc54)C3)cs2)CC1 (stereo not drawn) [Compound 102, 1-[4-[4-(2,3-dihydrospiro[4H-1-benzothiopyran-4,5′(4′H)-isoxazol]-3′-yl)-2-thiazolyl]-1-piperidinyl]-2-[5-methyl-3-(trifluoromethyl)-1H-pyrazol-1-yl]ethanone] |  |  |  | pest or weed control at 40 ppm [1]: 100%; pest or weed control at 40 ppm ([2]; * tested at 40 ppm): 100%; pest or weed control at 40 ppm [3]: 99% |
| Cc1cc(C(F)(F)F)nn1CC(=O)N1CCC(c2nc(C3=NOC(c4ccccc4)(C4CC4)C3)cs2)CC1 (stereo not drawn) [Compound 103] | 100% | 100% | 99% |  |
| Cc1cc(C(F)(F)F)nn1CC(=O)N1CCC(c2nc(C3=NOC4(CCC(c5ccccc5)CC4)C3)cs2)CC1 (stereo not drawn) [Compound 104] |  |  |  | Percent Disease Control, Test B [1, 4]: 100%; Percent Disease Control, Test A [2, 4]: 100%; Percent Disease Control, Test C [3, 4]: 99% |
| CCC1(c2ccccc2)CC(c2csc(C3CCN(C(=O)Cn4nc(C(F)(F)F)cc4C)CC3)n2)=NO1 (stereo not drawn) [Compound 105] | 100% | 100% | 99% |  |
| Cc1cc(C(F)(F)F)nn1CC(=O)N1CCC(c2nc(C3=NOC(c4ccc(-c5ccccc5)cc4)C3)cs2)CC1 (stereo not drawn) [Compound 106] | 85% | 80% | 24% |  |
| O=C(Cn1nc(C(F)(F)F)cc1Cl)N1CCC(c2nc(C3=NOC(c4ccccc4)C3)cs2)CC1 (stereo not drawn) [Compound 107, 2-[5-chloro-3-(trifluoromethyl)-1H-pyrazol-1-yl]-1-[4-[4-(4,5-dihydro-5-phenyl-3-isoxazolyl)-2-thiazolyl]-1-piperidinyl]ethanone] |  |  |  | pest or weed control at 40 ppm [1]: 100%; pest or weed control at 40 ppm ([2]; * tested at 40 ppm): 100%; pest or weed control at 40 ppm [3]: 99% |
| Cc1cc(C(F)(F)F)nn1CC(=O)N1CCC(c2nc(C3=NC(c4ccccc4)C(c4ccccc4)N3)cs2)CC1 (stereo not drawn) [Compound 108] |  |  |  | Percent Disease Control, Test B [1, 4]: 58%; Percent Disease Control, Test A [2, 4]: 0%; Percent Disease Control, Test C [3, 4]: 0% |
| Cc1cc(C(F)(F)F)nn1CC(=O)N1CCC(c2nc(C3=NOC4(CCCc5sccc54)C3)cs2)CC1 (stereo not drawn) [Compound 109] | 100% | 100% | 98% |  |
| Cc1cc(C(F)(F)F)nn1CC(=O)N1CCC(c2nc(C3=NOC(c4ccc(O)cc4)C3)cs2)CC1 (stereo not drawn) [Compound 110] | 100% | 97% | 99% |  |
| Cc1cc(C(F)(F)F)nn1CC(=O)N1CCC(c2nc(C3=NOC(c4cnccn4)C3)cs2)CC1 (stereo not drawn) [Compound 111] | 100% | 97% | 97% |  |
| Cc1cc(C(F)(F)F)nn1CC(=O)N1CCC(c2nc(C3=NOC(CN4Cc5cccc(Cl)c5S4(=O)=O)C3)cs2)CC1 (stereo not drawn) [Compound 112] | 100% | 76% | 68% |  |
| CC(=O)Oc1ccc(C2CC(c3csc(C4CCN(C(=O)Cn5nc(C(F)(F)F)cc5C)CC4)n3)=NO2)cc1 (stereo not drawn) [Compound 113] | 100% | 99% | 99% |  |
| Cc1cc(C(F)(F)F)nn1CC(=O)N1CCC(c2nc(C3=NOC(c4ccccc4C(F)(F)F)C3)cs2)CC1 (stereo not drawn) [Compound 114] | 100% | 100% | 99% |  |
| Cc1cc(C(F)(F)F)nn1CC(=O)N1CCC(c2nc(C3=NOC(c4cccc(C(F)(F)F)c4)C3)cs2)CC1 (stereo not drawn) [Compound 115] | 100% | 100% | 99% |  |
| COC(=O)CC1CC(c2csc(C3CCN(C(=O)Cn4nc(C(F)(F)F)cc4C)CC3)n2)=NO1 (stereo not drawn) [Compound 116] |  |  |  | Percent Disease Control, Test B [1, 4]: 100%; Percent Disease Control, Test A [2, 4]: 46%; Percent Disease Control, Test C [3, 4]: 79% |
| Cc1cc(C(F)(F)F)nn1CC(=O)N1CCC(c2nc(C3=NOC(S(=O)(=O)c4ccccc4)C3)cs2)CC1 (stereo not drawn) [Compound 117] | 100% | 93% | 99% |  |
| Cc1cc(C(F)(F)F)nn1CC(=O)N1CCC(c2nc(C3=NC[C@@H](c4ccccc4)N3C)cs2)CC1 [Compound 118] | 87% | 0% | 16% |  |
| Cc1cc(C(F)(F)F)nn1CC(=O)N1CCC(c2nc(C3=N[C@@H](c4ccccc4)[C@@H](c4ccccc4)N3)cs2)CC1 [Compound 119] |  |  |  | Percent Disease Control, Test B [1, 4]: 82%; Percent Disease Control, Test A [2, 4]: 0%; Percent Disease Control, Test C [3, 4]: 0% |
